Reference: patent US20120029187A1, “HALOALKYLSULFONANILIDE DERIVATIVE” (Nissan Chemical Industries, Ltd., priority 2009, published 2012)

Assays:
Format in all cases: in vivo
[1] = system: bulrush; experiment: Test Example 1: herbicidal effects in preemergence treatment under submerged conditions; conditions: dose 2.52 g/a
Summary of the method: (§1)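 Score 0–5 by mortality (5: ≥90%; 0: <5%), read 3 weeks post-application. Paddy-type cups: alluvial soil under 4 cm water, weeds seeded plus transplanted 2.5-leaf rice; diluted EC dosed onto water surface same day as sowing, g/a basis; greenhouse 25 to 30° C.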

[2] = system: barnyardgrass; experiment: as above; conditions: dose 2.52 g/a
Summary of the method: as §1

[3] = system: ducksalad; experiment: as above; conditions: dose 2.52 g/a
Summary of the method: as §1

[4] = system: posumbu knotweed; experiment: Test Example 4: herbicidal effect in foliage treatment; conditions: dose 3.2 g/a, three weeks after application
Summary of the method: (§2)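 Doses are given in grams per are of applied compound, sprayed as water-diluted emulsifiable concentrate onto foliage of 14-day-old plants grown at 25 to 30° C. Herbicidal activity was assessed visually on a rating scale after three weeks.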

[5] = system: common lambsquater; experiment: as above; conditions: dose 3.2 g/a, three weeks after application
Summary of the method: as §2

[6] = system: redroot pigweed; experiment: as above; conditions: dose 3.2 g/a, three weeks after application
Summary of the method: as §2

[7] = system: Italian ryegrass; experiment: as above; conditions: dose 3.2 g/a, three weeks after application
Summary of the method: as §2

[8] = system: water foxtail; experiment: as above; conditions: dose 3.2 g/a, three weeks after application
Summary of the method: as §2

[9] = system: common ragweed; experiment: as above; conditions: dose 3.2 g/a, three weeks after application
Summary of the method: as §2

[10] = system: beadstraw; experiment: as above; conditions: dose 3.2 g/a, three weeks after application
Summary of the method: as §2

[11] = system: common chickweed; experiment: as above; conditions: dose 3.2 g/a, three weeks after application
Summary of the method: as §2

[12] = system: barnyardgrass; experiment: as above; conditions: dose 3.2 g/a, three weeks after application
Summary of the method: as §2

[13] = system: giant foxtail; experiment: as above; conditions: dose 3.2 g/a, three weeks after application
Summary of the method: as §2

[14] = system: velvetleaf; experiment: as above; conditions: dose 3.2 g/a, three weeks after application
Summary of the method: as §2

[15] = system: large crabgrass; experiment: as above; conditions: dose 3.2 g/a, three weeks after application
Summary of the method: as §2

[16] = system: bulrush; experiment: Test Example 2: herbicidal effects during the vegetation period under submerged conditions; conditions: treatment during the vegetation period under submerged conditions; dose 2.52 g/a
Summary of the method: (§3)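 Barnyardgrass, bulrush and ducksalad were co-sown in alluvial soil flooded to 4 cm and grown in a greenhouse at 25 to 30° C. At the 1- or 2-leaf stage, water-diluted emulsifiable concentrates went onto the water surface at set doses (g/a). Herbicidal effect was scored three weeks later on a graded scale.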

[17] = system: barnyardgrass; experiment: as above; conditions: treatment during the vegetation period under submerged conditions; dose 2.52 g/a
Summary of the method: as §3

[18] = system: ducksalad; experiment: as above; conditions: treatment during the vegetation period under submerged conditions; dose 2.52 g/a
Summary of the method: as §3

[19] = system: transplanted rice; experiment: Test Example 1: preemergence treatment under submerged conditions, effect on crop; conditions: dose 2.52 g/a
Summary of the method: as §1

[20] = system: posumbu knotweed; experiment: Test Example 3: herbicidal effects in soil treatment; conditions: dose 3.2 g/a
Summary of the method: (§4)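 Seeds were sown in sterilized diluvial soil and covered with about 1.5 cm of soil. Compounds, formulated as emulsifiable concentrates and diluted with water, were sprayed evenly over the soil surface at set doses in g/a. Herbicidal effect was scored on a rating scale three weeks later.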

[21] = system: common lambsquater; experiment: as above; conditions: dose 3.2 g/a
Summary of the method: as §4

[22] = system: redroot pigweed; experiment: as above; conditions: dose 3.2 g/a
Summary of the method: as §4

[23] = system: Italian ryegrass; experiment: as above; conditions: dose 3.2 g/a
Summary of the method: as §4

[24] = system: water foxtail; experiment: as above; conditions: dose 3.2 g/a
Summary of the method: as §4

[25] = system: common ragweed; experiment: as above; conditions: dose 3.2 g/a
Summary of the method: as §4

[26] = system: common chickweed; experiment: as above; conditions: dose 3.2 g/a
Summary of the method: as §4

[27] = system: barnyardgrass; experiment: as above; conditions: dose 3.2 g/a
Summary of the method: as §4

[28] = system: giant foxtail; experiment: as above; conditions: dose 3.2 g/a
Summary of the method: as §4

[29] = system: velvetleaf; experiment: as above; conditions: dose 3.2 g/a
Summary of the method: as §4

[30] = system: large crabgrass; experiment: as above; conditions: dose 3.2 g/a
Summary of the method: as §4

Compound: CC1(CC(F)(F)F)CC(=O)N(Cc2ccccc2NS(=O)(=O)C(F)(F)F)CO1 (stereo not drawn) [II-51]
- B: bulrush, herbicidal effect (evaluation scale 0-5) [1]: 5 (mortality of 90% or above (nearly complete death))
- A: barnyardgrass, herbicidal effect (evaluation scale 0-5) [2]: 5 (mortality of 90% or above (nearly complete death))
- C: ducksalad, herbicidal effect (evaluation scale 0-5) [3]: 5 (mortality of 90% or above (nearly complete death))
- M: posumbu knotweed, herbicidal effect [4]: 5 (mortality of 90% or above (nearly complete death))
- L: common lambsquater, herbicidal effect [5]: 3 (mortality of at least 40% and less than 70%)
- K: redroot pigweed, herbicidal effect [6]: 0 (mortality of less than 5% (almost ineffective))
- H: Italian ryegrass, herbicidal effect [7]: 3 (mortality of at least 40% and less than 70%)
- G: water foxtail, herbicidal effect [8]: 5 (mortality of 90% or above (nearly complete death))
- J: common ragweed, herbicidal effect [9]: 3 (mortality of at least 40% and less than 70%)
- O: beadstraw, herbicidal effect [10]: 4 (mortality of at least 70% and less than 90%)
- N: common chickweed, herbicidal effect [11]: 5 (mortality of 90% or above (nearly complete death))
- A: barnyardgrass, herbicidal effect [12]: 5 (mortality of 90% or above (nearly complete death))
- E: giant foxtail, herbicidal effect [13]: 4 (mortality of at least 70% and less than 90%)
- I: velvetleaf, herbicidal effect [14]: 4 (mortality of at least 70% and less than 90%)
- D: large crabgrass, herbicidal effect [15]: 4 (mortality of at least 70% and less than 90%)
- B: bulrush, herbicidal effect (evaluation scale 0-5) [16]: 4 (mortality of at least 70% and less than 90%)
- A: barnyardgrass, herbicidal effect (evaluation scale 0-5) [17]: 5 (mortality of 90% or above (nearly complete death))
- C: ducksalad, herbicidal effect (evaluation scale 0-5) [18]: 5 (mortality of 90% or above (nearly complete death))
- a: transplanted rice, effect on crop (evaluation scale 0-5) [19]: 0 (mortality of less than 5% (almost ineffective))
- M: posumbu knotweed, herbicidal effect (evaluation scale 0-5) [20]: 5 (mortality of 90% or above (nearly complete death))
- L: common lambsquater, herbicidal effect (evaluation scale 0-5) [21]: 0 (mortality of less than 5% (almost ineffective))
- K: redroot pigweed, herbicidal effect (evaluation scale 0-5) [22]: 0 (mortality of less than 5% (almost ineffective))
- H: Italian ryegrass, herbicidal effect (evaluation scale 0-5) [23]: 3 (mortality of at least 40% and less than 70%)
- G: water foxtail, herbicidal effect (evaluation scale 0-5) [24]: 5 (mortality of 90% or above (nearly complete death))
- J: common ragweed, herbicidal effect (evaluation scale 0-5) [25]: 4 (mortality of at least 70% and less than 90%)
- N: common chickweed, herbicidal effect (evaluation scale 0-5) [26]: 5 (mortality of 90% or above (nearly complete death))
- A: barnyardgrass, herbicidal effect (evaluation scale 0-5) [27]: 5 (mortality of 90% or above (nearly complete death))
- E: giant foxtail, herbicidal effect (evaluation scale 0-5) [28]: 4 (mortality of at least 70% and less than 90%)
- I: velvetleaf, herbicidal effect (evaluation scale 0-5) [29]: 5 (mortality of 90% or above (nearly complete death))
- D: large crabgrass, herbicidal effect (evaluation scale 0-5) [30]: 5 (mortality of 90% or above (nearly complete death))

Compound: CCOC(=O)N(c1ccccc1CN1COC(C)(C)C(Br)C1=O)S(=O)(=O)C(F)(F)F (stereo not drawn) [II-39, 5-bromo-6,6-dimethyl-3-[2-(N-ethoxylcarbonyl-N-trifluoromethanesulfonyl)aminobenzyl]-1,3-oxazinan-4-one]
- B: bulrush, herbicidal effect (evaluation scale 0-5) [1]: 5 (mortality of 90% or above (nearly complete death))
- A: barnyardgrass, herbicidal effect (evaluation scale 0-5) [2]: 5 (mortality of 90% or above (nearly complete death))
- C: ducksalad, herbicidal effect (evaluation scale 0-5) [3]: 5 (mortality of 90% or above (nearly complete death))
- M: posumbu knotweed, herbicidal effect [4]: 3 (mortality of at least 40% and less than 70%)
- L: common lambsquater, herbicidal effect [5]: 3 (mortality of at least 40% and less than 70%)
- K: redroot pigweed, herbicidal effect [6]: 4 (mortality of at least 70% and less than 90%)
- H: Italian ryegrass, herbicidal effect [7]: 3 (mortality of at least 40% and less than 70%)
- G: water foxtail, herbicidal effect [8]: 5 (mortality of 90% or above (nearly complete death))
- J: common ragweed, herbicidal effect [9]: 5 (mortality of 90% or above (nearly complete death))
- O: beadstraw, herbicidal effect [10]: 4 (mortality of at least 70% and less than 90%)
- N: common chickweed, herbicidal effect [11]: 4 (mortality of at least 70% and less than 90%)
- A: barnyardgrass, herbicidal effect [12]: 5 (mortality of 90% or above (nearly complete death))
- E: giant foxtail, herbicidal effect [13]: 5 (mortality of 90% or above (nearly complete death))
- I: velvetleaf, herbicidal effect [14]: 5 (mortality of 90% or above (nearly complete death))
- D: large crabgrass, herbicidal effect [15]: 4 (mortality of at least 70% and less than 90%)
- B: bulrush, herbicidal effect (evaluation scale 0-5) [16]: 5 (mortality of 90% or above (nearly complete death))
- A: barnyardgrass, herbicidal effect (evaluation scale 0-5) [17]: 5 (mortality of 90% or above (nearly complete death))
- C: ducksalad, herbicidal effect (evaluation scale 0-5) [18]: 5 (mortality of 90% or above (nearly complete death))
- a: transplanted rice, effect on crop (evaluation scale 0-5) [19]: 0 (mortality of less than 5% (almost ineffective))
- M: posumbu knotweed, herbicidal effect (evaluation scale 0-5) [20]: 5 (mortality of 90% or above (nearly complete death))
- L: common lambsquater, herbicidal effect (evaluation scale 0-5) [21]: 5 (mortality of 90% or above (nearly complete death))
- K: redroot pigweed, herbicidal effect (evaluation scale 0-5) [22]: 1 (mortality of at least 5% and less than 20%)
- H: Italian ryegrass, herbicidal effect (evaluation scale 0-5) [23]: 5 (mortality of 90% or above (nearly complete death))
- G: water foxtail, herbicidal effect (evaluation scale 0-5) [24]: 5 (mortality of 90% or above (nearly complete death))
- J: common ragweed, herbicidal effect (evaluation scale 0-5) [25]: 4 (mortality of at least 70% and less than 90%)
- N: common chickweed, herbicidal effect (evaluation scale 0-5) [26]: 5 (mortality of 90% or above (nearly complete death))
- A: barnyardgrass, herbicidal effect (evaluation scale 0-5) [27]: 5 (mortality of 90% or above (nearly complete death))
- E: giant foxtail, herbicidal effect (evaluation scale 0-5) [28]: 5 (mortality of 90% or above (nearly complete death))
- I: velvetleaf, herbicidal effect (evaluation scale 0-5) [29]: 5 (mortality of 90% or above (nearly complete death))
- D: large crabgrass, herbicidal effect (evaluation scale 0-5) [30]: 5 (mortality of 90% or above (nearly complete death))
